Experimental data: patent US5968912A, “Methods for immunosuppressing” (Immune Modulation, Inc., priority 1997, dated 1999)
Values joined by “and” are separate entries in the source; they are usually repeats but may differ in a detail not shown here. Equal values may be shown once. “Also recorded” adds a separate entry of the source.

Assays:
[1] = system: Human T-lymphocyte-mediated cytolysis (cytotoxic CD8+ T-cells); experiment: One-way MLR-generated T-lymphocyte-mediated cytolysis (CTL assay, 51Cr release); assay type: cell-based
Interferon-gamma = Interferon-gamma production in PHA-stimulated PBMC cultures; assay type: cell-based, human; set-up: % Inhibition of IFN-γ production: concentration or dose not given beside the values
Procedure: Production of autocrine growth factors (IL-2, IL-4, IL-10 and Interferon-gamma) in PHA-stimulated human PBMC cultures
Culture supernatants were collected at the times indicated and frozen at -20° C. At the end of 96 hr., all supernatants were assayed by enzyme immunoassay for the presence of the cytokines: interleukin-2, -4, -10 and interferon (IFN)-gamma. Results were expressed in pg/mL concentration of cytokine and % inhibition of cytokine production.

[2] = system: skin graft rejection (Balb/C tail skin on C57BL/6 mice); experiment: Skin graft survival in mice; assay type: in vivo, mouse
Procedure: Effect of HE-33 on Skin-Grafting
Balb/C and C57BL/6 mice are genetically histoincompatible in that Balb/C is of haplotype H-2^d whereas C57BL/6 is of haplotype H-2^b. The surgical procedure used in these experiments was performed according to the procedures reported by Matriano, J. E. et al. (J. Immunol., 1996, 156:4114-4119).
Mice in groups 4 and 5 were orally administered HE-33 daily from 2 days prior to grafting. Rejection was assessed by observing redness and dryness of the graft (Natriano, J. E. et al., J. Immunol., 1996, 153:1505-1514). At a dose of 100 mg/kg I.V., HE-33 prolonged graft survival by approximately 4 days.
C57BL/6 mice were grafted with tail skin from Balb/c mice. Drug treatment
was started two days prior to grafting. Casts were removed on day 6 and
survival of the graft was scored everyday. Rejection was defined on chang
in thickness, dryness and >80% redness of the graft.

[3] = system: NK cell activity (YAC-I cells as target); experiment: NK cell cytotoxicity assay, cells of pretreated donor mice; assay type: in vivo, mouse (C57BL/6); conditions: spleen, effector/target 100:1
Procedure: (§1) Elimination of endogenous and inducible NK cell activity from the cell donor mice (C57BL/6)
(§2) Six- to ten-week old C57BL/6 mice were treated for 24 hours orally or intravenously with HE-33. Orally-treated mice received 400 mg/kg twice a day (Bid), and intravenously treated mice received a single 100 mg/kg i.v.
NK Cell cytotoxicity assay: At the end of the 24 hour pre-treatment with HE-33, all treated mice and control, non-treated mice (i.e., mice treated with vehicle, PBS) were sacrificed by cervical dislocation. Spleens and lymph nodes were removed and single-cell suspension of pooled spleen and lymph nodes from mice in each group of donor were prepared in RPMI-1640 supplemented with 10% fetal bovine serum (FBS) and 1% penicillin/streptomycin. Target cells were ^51 Cr-labeled Moloney leukemia virus-induced lymphoma (YAC) tumor cells. Different effector:target cell ratios were cultured in triplicate samples in U-bottomed microtiter plates for 4 hours at 37° C. in a humidified atmosphere containing 5% CO2. The microtiter plates were then centrifuged, and 100-μL aliquots of supernatants were assayed for ^51 Cr release. Results were expressed as percent lysis and percent suppression of lysis. The method of Ojo-Amaize, E. et. al., Scand. Journal of Immunology, 1978, 7: 297-306, was used for the NK assays.

[4] = system: GVHD in (B6 x C3H)F1 mice; experiment: GVHD in (B6 x C3H)F1 recipients of cells from pretreated C57BL/6 donor mice; assay type: in vivo, mouse
Procedure: Generation of F1 Recipient Mice: Male mice of inbred strains, C57BL/6 (H-2^b haplotype) were mated with female mice of inbred strains, C3 H/j (H-2^k haplotype). The resulting hybrids (C57BL/6×C3 H/j)F1 were used as recipients of the B6 spleen cells.
as §1, §2
Irradiation of Recipient (B6 ×C3 H)F1 Mice: Ten- to twelve- week old (B6 ×C3 H)F1 mice were sublethally irradiated with a Cobalt-60 gamma source at 450 rads in a single dose.
Induction of GVHD: GVHD was induced in irradiated (B6 ×C3 H)F1 mice by the intravenous injection of 5×10^7 donor B6 (H-2^b) spleen and lymph node cells.

For `CCCN(CCC)c1ncnc2c1ncn2[C@@H]1O[C@@H]2COP(=O)(O)O[C@H]2[C@H]1O` [HE-33, N^6,N^6 -di-n-Propyl-c-AMP], the “% Specific Lysis” value ([1]; 100 μM, E:T 25:1) was 4%, the inhibition at 100 µM ([1]; Homo sapiens, T-cell, E:T 25:1, read-out: % Inhibition of lysis) was 80% and the “% Inhibition of IFN-γ production” value (Interferon-gamma; 24 hours) was 0%. The IFN-γ production (Interferon-gamma; 24 hours) was 980 pg/mL, the “% Inhibition of IFN-γ production” value (Interferon-gamma; 48 hours) was 9% and the IFN-γ production (Interferon-gamma; 48 hours) was 6146 pg/mL. For the same compound, the “% Inhibition of IFN-γ production” value (Interferon-gamma; 72 hours) was 0%, the IFN-γ production (Interferon-gamma; 72 hours) was 5390 pg/mL and the “% Inhibition of IFN-γ production” value (Interferon-gamma; 96 hours) was 0%. For the same compound, the IFN-γ production (Interferon-gamma; 96 hours) was 6105 pg/mL, the “Mean Survival Time” value ([2]; 50 mg/kg (I.V.)) was 10.25 days and the “Mean Survival Time” value ([2]; 100 mg/kg (I.V.)) was 13.4 days. For the same compound, the “Prolongation of graft survival” value ([2]; 100 mg/kg I.V.) was “approximately 4 days”, the “Mean Survival Time” value ([2]; 200 mg/kg (oral)) was 9.2 days and the “Mean Survival Time” value ([2]; 400 mg/kg (oral)) was 9.8 days. The “Percent Lysis (NK cell activity)” value ([3]; 100 mg/kg IV) was 14%, the “Percent Lysis (NK cell activity)” value ([3]; 400 mg/kg (Bid) oral) was 5% and the “Percent Suppression of NK cell activity” value ([3]; 400 mg/kg (Bid) oral) was ~80% and 76%. For the same compound, the “Mean survival time (MST) of the mice that died” value ([4]; FIG. 2) was 46 days, the “Recipients that had died” value ([4]; by 55 days post cell transfer, FIG. 2) was 30% and the “Recipients that had died” value ([4]; by day 30 post cell transfer, FIG. 2, P<0.0000001) was “none”. The “Recipients that had died” value ([4]; day 33 post cell transfer, FIG. 3) was 50% and the “Prevention of GVHD by route of administration, in words” value ([4]; oral versus intravenous) was “the oral route was better than the i.v. route; also recorded: Both the oral and intravenous routes of administration of HE-33 were effective in preventing GVHD”.
